Data reported in article PMC8805605, “Discovery of Dimeric Arylsulfonamides as Potent ADAM8 Inhibitors” (ACS Medicinal Chemistry Letters, 2021).

Biological target: T1, Recombinant human MMP-14 catalytic domain (Homo sapiens, UniProt P50281)
T1 construct: Recombinant human MMP-14 catalytic domain was a kind gift of Prof; Gillian Murphy; kind gift of Prof; Gillian Murphy (Department of Oncology, University of Cambridge, UK)
Test: MMP-14 fluorometric inhibition assay
Type: biochemical
Conditions: mean of three independent experiments in duplicate, read-out: In vitro inhibitory activity IC50 on MMP-14
Procedure: The newly synthesized bivalent derivatives 1–3 were then tested in vitro on human recombinant ADAM8 in comparison with JG26 by a fluorometric assay. The inhibitory activity against a panel of MMPs and ADAM10/17 was determined as well to assess their selectivity profile. […]
VI. Biological Activity on Isolated Enzymes
MMP and ADAM10 inhibition assays.
Recombinant human MMP-14 catalytic domain was a kind gift of Prof. Gillian Murphy (Department of […]
Oncology, University of Cambridge, UK). Pro-MMP-1, pro-MMP-2, and pro-MMP-9, were purchased […]
from Calbiochem (Merck-Millipore). Pro-MMP-12 and ADAM10 were purchased from R&D Systems.
Proenzymes were activated immediately prior to use with p-aminophenylmercuric acetate (APMA 2 […]
mM for 1 h at 37°C for MMP-2 and MMP-1, 1 mM for 1 h at 37°C for MMP-9). Pro-MMP-12 was […]
auto activated by incubating in the fluorometric assay buffer (FAB: Tris 50 mM, pH = 7.5, NaCl 150 […]
mM, CaCl2 10 mM, Brij 35 0.05% and DMSO 1%) for 30 h at 37°C. For assay measurements, each […]
inhibitor stock solution (DMSO, 10 mM) was further diluted in FAB at seven different concentrations.
Activated enzyme (final concentration 0.56 nM for MMP-2, 1.3 nM for MMP-9, 1.0 nM for MMP- […]
14cd, 2.0 nM for MMP-1, 2.3 nM for MMP-12 and 20 nM for ADAM10) and inhibitor solutions were […]
incubated in the assay buffer for 3 h at 25 °C. ADAM10 was incubated for 1 h at 37°C in a different […]
buffer at pH 9 (Tris 25 mM, ZnCl2 25 µM, Brij-35 0.005 %). After the addition of 200 µM solution of […]
the fluorogenic substrate Mca-Lys-Pro-Leu-Gly-Leu-Dap(Dnp)-Ala-Arg-NH2 (Bachem) for all the […]
enzymes in DMSO (final concentration 2 µM for all enzymes, 10 µM for ADAM10), the hydrolysis […]
was monitored every 10 sec. for 15 min. recording the increase in fluorescence (λ ex = 325 nm, λ em = […]
400 nm) using a Molecular Devices SpectraMax Gemini XPS plate reader. The assays were performed […]
in triplicate in a total volume of 200 μL per well in 96-well microtitre plates (Corning, black, NBS).
Control wells lack inhibitor. The MMP inhibition activity was expressed in relative fluorescent units […]
(RFU). Percent of inhibition was calculated from control reactions without the inhibitor. IC50 was determined using the formula: v i/v o = 1/(1 + [I]/ IC50), where v i is the initial velocity of substrate cleavage in the presence of the inhibitor at concentration [I] and v o is the initial velocity in the absence of the inhibitor. Results were analyzed using SoftMax Pro software (version 5.4.3, Molecular Devices, Sunnyvale, CA) and Prism Software version 5.0 (GraphPad Software, Inc., La Jolla, CA, USA). […]

| Compound | IC50 [µM] |
| --- | --- |
| O=C(NCCC[C@@H](NS(=O)(=O)c1ccc(OCc2cc(Br)cc(Br)c2)cc1)C(=O)NO)NCCC[C@@H](NS(=O)(=O)c1ccc(OCc2cc(Br)cc(Br)c2)cc1)C(=O)NO [Compound 3] | 234 |
| NC(=O)NCCC[C@@H](NS(=O)(=O)c1ccc(OCc2cc(Br)cc(Br)c2)cc1)C(=O)NO [JG26, reference compound] | 19.5 |
| O=C(NCCC[C@@H](NS(=O)(=O)c1ccc(OCc2cc(Br)cc(Br)c2)cc1)C(=O)NO)c1cccc(C(=O)NCCC[C@@H](NS(=O)(=O)c2ccc(OCc3cc(Br)cc(Br)c3)cc2)C(=O)NO)c1 [Compound 2] | 50 |
| O=C(CCCNC(=O)c1cccc(C(=O)NCCCC(=O)NCCC[C@@H](NS(=O)(=O)c2ccc(OCc3cc(Br)cc(Br)c3)cc2)C(=O)NO)c1)NCCC[C@@H](NS(=O)(=O)c1ccc(OCc2cc(Br)cc(Br)c2)cc1)C(=O)NO [Compound 1] | 57 |
